Reference: the supplement of paper PMC6315032

Key:
Test in all cases: apparent dissociation constant (pKDapp, Kinobeads competition, Cheng-Prusoff corrected) (-log10 M); higher = tighter binding
Conditions in all cases: affinity matrix / lysate: Kinobeads, mixed HEK293/K-562/placenta lysate
[1] = biological target: AURKC (UniProt Q9UQB9)
[2] = biological target: CSNK1G2 (UniProt P78368)
[3] = biological target: ACVRL1 (UniProt P37023)
[4] = biological target: ADCK4 (UniProt Q96D53)
[5] = biological target: BRD4 (UniProt O60885)
[6] = biological target: CAMK1D (UniProt Q8IU85)
[7] = biological target: CSNK1G1 (UniProt Q9HCP0)
[8] = biological target: CSNK1G3 (UniProt Q9Y6M4)
[9] = biological target: DDR2 (UniProt Q16832)
[10] = biological target: DYRK1B (UniProt Q9Y463)
[11] = biological target: DYRK2 (UniProt Q92630)
[12] = biological target: EIF2AK2 (UniProt P19525)
[13] = biological target: LCK (UniProt P06239)
[14] = biological target: MAP3K10 (UniProt Q02779)
[15] = biological target: MAP4K1 (UniProt Q92918)
[16] = biological target: MAPK15 (UniProt Q8TD08)
[17] = biological target: PAK6 (UniProt Q9NQU5)
[18] = biological target: PRKACA (UniProt P17612)
[19] = biological target: PRKACB (UniProt P22694)
[20] = biological target: RIPK4 (UniProt P57078)
[21] = biological target: RNASEL (UniProt Q05823)
[22] = biological target: SGK1 (UniProt O00141)
[23] = biological target: SIK1 (UniProt P57059)
[24] = biological target: UHMK1 (UniProt Q8TAS1)
[25] = biological target: WNK1 (UniProt Q9H4A3)

Sequence of MAP4K1 (Q92918 whole entry, looked up): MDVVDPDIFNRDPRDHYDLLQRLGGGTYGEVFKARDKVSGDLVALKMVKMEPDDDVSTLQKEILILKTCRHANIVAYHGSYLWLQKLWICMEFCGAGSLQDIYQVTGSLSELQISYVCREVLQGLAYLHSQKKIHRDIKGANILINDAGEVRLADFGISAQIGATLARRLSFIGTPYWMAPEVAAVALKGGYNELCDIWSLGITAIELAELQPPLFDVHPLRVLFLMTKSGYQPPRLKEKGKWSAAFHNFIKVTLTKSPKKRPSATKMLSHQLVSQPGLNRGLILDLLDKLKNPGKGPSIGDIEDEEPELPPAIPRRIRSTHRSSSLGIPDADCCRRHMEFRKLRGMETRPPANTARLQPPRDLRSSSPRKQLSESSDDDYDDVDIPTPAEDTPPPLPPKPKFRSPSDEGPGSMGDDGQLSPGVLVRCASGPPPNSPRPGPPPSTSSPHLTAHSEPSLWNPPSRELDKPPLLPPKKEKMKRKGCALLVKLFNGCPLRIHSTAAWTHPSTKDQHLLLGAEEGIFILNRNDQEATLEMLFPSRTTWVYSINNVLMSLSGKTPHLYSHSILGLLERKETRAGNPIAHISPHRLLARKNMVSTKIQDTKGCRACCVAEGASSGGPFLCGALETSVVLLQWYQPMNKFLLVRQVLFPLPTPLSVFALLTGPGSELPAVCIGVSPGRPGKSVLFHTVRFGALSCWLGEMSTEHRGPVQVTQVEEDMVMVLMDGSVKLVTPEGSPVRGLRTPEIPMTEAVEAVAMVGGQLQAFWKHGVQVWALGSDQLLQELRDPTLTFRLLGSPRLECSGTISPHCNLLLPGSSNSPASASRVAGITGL
Sequence of RIPK4 (P57078 whole entry): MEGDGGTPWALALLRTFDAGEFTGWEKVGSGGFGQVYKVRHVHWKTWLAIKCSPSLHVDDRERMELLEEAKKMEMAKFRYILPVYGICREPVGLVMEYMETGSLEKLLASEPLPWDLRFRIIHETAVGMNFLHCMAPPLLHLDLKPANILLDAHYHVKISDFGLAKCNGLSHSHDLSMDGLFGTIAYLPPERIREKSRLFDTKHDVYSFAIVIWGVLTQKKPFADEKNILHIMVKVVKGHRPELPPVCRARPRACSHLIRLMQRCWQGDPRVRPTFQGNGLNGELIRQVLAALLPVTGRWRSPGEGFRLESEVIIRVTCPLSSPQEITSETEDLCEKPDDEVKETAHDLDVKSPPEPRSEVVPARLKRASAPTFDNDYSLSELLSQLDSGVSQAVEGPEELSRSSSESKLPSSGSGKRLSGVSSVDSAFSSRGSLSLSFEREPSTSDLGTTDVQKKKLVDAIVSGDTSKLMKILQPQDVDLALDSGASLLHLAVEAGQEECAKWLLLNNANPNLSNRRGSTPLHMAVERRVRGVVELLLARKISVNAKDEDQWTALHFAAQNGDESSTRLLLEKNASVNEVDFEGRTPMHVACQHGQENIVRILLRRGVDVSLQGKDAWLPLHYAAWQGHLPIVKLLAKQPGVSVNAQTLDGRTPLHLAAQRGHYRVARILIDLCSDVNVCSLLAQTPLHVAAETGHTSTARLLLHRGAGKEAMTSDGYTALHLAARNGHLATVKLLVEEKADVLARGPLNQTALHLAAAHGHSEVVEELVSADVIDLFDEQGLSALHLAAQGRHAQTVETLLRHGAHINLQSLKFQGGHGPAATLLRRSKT
Sequence of DYRK1B (Q9Y463 whole entry, looked up): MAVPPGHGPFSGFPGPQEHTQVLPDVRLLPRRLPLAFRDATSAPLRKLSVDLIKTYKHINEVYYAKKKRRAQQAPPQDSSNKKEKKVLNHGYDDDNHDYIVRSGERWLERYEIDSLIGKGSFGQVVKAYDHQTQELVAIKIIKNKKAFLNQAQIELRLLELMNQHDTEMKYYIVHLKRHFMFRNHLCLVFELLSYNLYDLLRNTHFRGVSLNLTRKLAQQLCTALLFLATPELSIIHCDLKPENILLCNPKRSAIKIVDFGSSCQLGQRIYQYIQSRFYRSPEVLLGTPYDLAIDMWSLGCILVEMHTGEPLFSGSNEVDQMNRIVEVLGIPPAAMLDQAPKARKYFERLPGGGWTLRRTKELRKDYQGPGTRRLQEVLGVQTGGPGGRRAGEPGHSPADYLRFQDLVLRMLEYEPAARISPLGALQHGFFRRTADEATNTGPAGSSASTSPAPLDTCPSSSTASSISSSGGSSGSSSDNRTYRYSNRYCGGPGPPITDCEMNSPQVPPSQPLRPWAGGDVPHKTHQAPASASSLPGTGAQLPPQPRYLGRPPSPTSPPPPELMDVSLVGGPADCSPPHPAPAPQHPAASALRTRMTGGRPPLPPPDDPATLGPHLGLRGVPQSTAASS
Sequence of UHMK1 (Q8TAS1 whole entry): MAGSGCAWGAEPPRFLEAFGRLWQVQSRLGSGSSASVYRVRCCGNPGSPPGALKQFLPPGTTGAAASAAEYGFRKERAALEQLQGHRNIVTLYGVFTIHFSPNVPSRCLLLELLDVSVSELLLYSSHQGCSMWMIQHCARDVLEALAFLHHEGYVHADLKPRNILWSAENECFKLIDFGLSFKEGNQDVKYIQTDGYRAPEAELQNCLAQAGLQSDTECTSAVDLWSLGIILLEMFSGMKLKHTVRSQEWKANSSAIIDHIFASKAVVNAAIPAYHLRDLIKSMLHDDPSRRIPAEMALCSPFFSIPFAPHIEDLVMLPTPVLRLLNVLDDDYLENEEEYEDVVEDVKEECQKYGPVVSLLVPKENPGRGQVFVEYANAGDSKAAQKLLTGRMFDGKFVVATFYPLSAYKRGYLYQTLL
Sequence of AURKC (Q9UQB9 whole entry): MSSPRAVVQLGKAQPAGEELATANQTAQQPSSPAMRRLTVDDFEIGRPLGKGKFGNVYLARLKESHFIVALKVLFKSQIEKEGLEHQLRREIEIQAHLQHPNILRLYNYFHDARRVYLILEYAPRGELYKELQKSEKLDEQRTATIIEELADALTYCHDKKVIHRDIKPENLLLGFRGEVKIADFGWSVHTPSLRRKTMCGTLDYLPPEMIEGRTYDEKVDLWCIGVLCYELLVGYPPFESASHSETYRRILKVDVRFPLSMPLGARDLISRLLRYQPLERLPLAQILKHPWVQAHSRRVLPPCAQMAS
Sequence of CSNK1G2 (P78368 whole entry, looked up): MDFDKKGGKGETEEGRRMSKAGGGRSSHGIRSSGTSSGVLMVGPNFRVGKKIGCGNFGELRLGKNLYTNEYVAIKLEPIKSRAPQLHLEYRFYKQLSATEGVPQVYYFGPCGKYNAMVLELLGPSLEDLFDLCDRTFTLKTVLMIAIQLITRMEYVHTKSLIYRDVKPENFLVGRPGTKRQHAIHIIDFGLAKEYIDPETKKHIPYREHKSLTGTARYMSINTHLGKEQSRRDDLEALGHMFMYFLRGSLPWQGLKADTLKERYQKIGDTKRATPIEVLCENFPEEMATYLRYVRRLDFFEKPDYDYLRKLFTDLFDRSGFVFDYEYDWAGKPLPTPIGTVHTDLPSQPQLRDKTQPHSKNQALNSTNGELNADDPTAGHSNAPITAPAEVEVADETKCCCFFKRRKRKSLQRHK
Sequence of CSNK1G3 (Q9Y6M4 whole entry, looked up): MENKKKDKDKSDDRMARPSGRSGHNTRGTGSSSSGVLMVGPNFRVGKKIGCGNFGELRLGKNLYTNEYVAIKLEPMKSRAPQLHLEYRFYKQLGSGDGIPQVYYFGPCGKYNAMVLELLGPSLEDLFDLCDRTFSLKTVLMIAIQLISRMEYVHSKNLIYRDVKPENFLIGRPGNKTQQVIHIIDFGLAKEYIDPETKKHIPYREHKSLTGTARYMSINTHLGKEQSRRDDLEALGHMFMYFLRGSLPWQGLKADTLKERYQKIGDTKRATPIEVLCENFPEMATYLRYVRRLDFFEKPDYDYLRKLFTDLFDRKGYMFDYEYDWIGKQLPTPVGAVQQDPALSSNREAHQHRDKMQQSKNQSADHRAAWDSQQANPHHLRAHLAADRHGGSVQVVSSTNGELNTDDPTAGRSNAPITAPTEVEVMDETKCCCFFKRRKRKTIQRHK
Sequence of ACVRL1 (P37023 whole entry): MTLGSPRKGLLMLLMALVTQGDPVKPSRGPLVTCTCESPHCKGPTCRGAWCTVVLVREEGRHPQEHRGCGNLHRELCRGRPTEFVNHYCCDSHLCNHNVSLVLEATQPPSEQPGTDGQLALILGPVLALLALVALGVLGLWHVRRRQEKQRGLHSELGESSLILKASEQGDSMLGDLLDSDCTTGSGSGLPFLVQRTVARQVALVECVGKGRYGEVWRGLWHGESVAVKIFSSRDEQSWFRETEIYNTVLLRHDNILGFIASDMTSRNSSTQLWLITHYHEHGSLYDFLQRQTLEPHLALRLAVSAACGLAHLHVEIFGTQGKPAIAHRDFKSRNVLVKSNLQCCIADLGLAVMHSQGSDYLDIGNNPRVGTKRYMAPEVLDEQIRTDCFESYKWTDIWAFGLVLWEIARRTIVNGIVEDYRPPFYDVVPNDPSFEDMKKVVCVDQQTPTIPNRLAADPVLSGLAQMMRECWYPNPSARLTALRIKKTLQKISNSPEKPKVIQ
Sequence of CSNK1G1 (Q9HCP0 whole entry, looked up): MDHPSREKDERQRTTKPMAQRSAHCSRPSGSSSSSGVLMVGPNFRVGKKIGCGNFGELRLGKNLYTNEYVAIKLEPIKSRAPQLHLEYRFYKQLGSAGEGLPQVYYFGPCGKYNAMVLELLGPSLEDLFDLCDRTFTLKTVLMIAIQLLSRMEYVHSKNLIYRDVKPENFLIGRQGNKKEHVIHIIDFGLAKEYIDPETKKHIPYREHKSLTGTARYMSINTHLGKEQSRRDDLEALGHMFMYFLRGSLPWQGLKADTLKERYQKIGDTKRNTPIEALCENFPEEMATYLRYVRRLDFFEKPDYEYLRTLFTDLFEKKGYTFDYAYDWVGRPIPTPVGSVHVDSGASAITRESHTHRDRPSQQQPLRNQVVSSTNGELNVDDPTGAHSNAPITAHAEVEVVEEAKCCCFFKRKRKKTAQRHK

Row | apparent dissociation constant (-log10 M) [1] | apparent dissociation constant (-log10 M) [2] | apparent dissociation constant (-log10 M) [3] | apparent dissociation constant (-log10 M) [4] | apparent dissociation constant (-log10 M) [5] | apparent dissociation constant (-log10 M) [6] | apparent dissociation constant (-log10 M) [7] | apparent dissociation constant (-log10 M) [8] | apparent dissociation constant (-log10 M) [9] | apparent dissociation constant (-log10 M) [10] | apparent dissociation constant (-log10 M) [11] | apparent dissociation constant (-log10 M) [12] | apparent dissociation constant (-log10 M) [13] | apparent dissociation constant (-log10 M) [14] | apparent dissociation constant (-log10 M) [15] | apparent dissociation constant (-log10 M) [17] | apparent dissociation constant (-log10 M) [18] | apparent dissociation constant (-log10 M) [19] | apparent dissociation constant (-log10 M) [20] | apparent dissociation constant (-log10 M) [21] | apparent dissociation constant (-log10 M) [22] | apparent dissociation constant (-log10 M) [23] | apparent dissociation constant (-log10 M) [24] | apparent dissociation constant (-log10 M) [25] | Structure (SMILES) | apparent dissociation constant (-log10 M) [16]
1 | < 6 | < 6 | – | – | – | – | – | – | – | – | – | – | – | – | – | – | – | – | – | – | – | – | – | – | COc1ccc(-c2ccc3c(N4CCOC[C@@H]4C)nc(N4CCOC[C@@H]4C)nc3n2)cc1CO [AZD8055] | –
2 | – | – | < 6 | < 6 | < 6 | < 6 | < 6 | < 6 | < 6 | < 6 | < 6 | < 6 | < 6 | < 6 | < 6 | < 6 | < 6 | < 6 | < 6 | < 6 | < 6 | < 6 | < 6 | < 6 | CCNC(=O)Nc1ccc(-c2nc(N3CCOC[C@@H]3C)c3c(n2)C(C)(C)S(=O)(=O)C3)cc1 [CZ415] | < 6
